In patent US11999736B1, “Pyrazino[2′,1′:2,3]imidazo[4,5-b][1,7]naphthyridines compounds as CK2 inhibitors” (KING FAISAL UNIVERSITY, priority 2023, dated 2024):

Experiments:
[1] = system: HCT116 (colon) cancer cell line; assay: In vitro cytotoxic activity MTT assay, HCT116; format: cell-based; conditions: Homo sapiens, HCT-116; HCT116 (colon) cells, exposed for 96 hours; read-out: IC50, concentration of compound eliciting a 50% inhibition of cell proliferation
Protocol: (§1) Compounds 1-16 were screened for their in vitro cytotoxic activity utilizing a 3-(4,5-dimethyl-thiazol-2-yl)-2,5-diphenyltetrazolium bromide (MTT) assay against selected cancer human cell lines consisting of PC3 (prostate), HCT116 (colon), A375 (melanoma), H1299 (lung), MIAPaCa-2 (pancreas), HL60 (leukemia), MCF7 (breast), MDA-MB-231 (breast) (T. Mosmann, J. Immunol. Meth., 1983, 65, 55-63). The cells were cultured at 37° C. in RMPI1640 medium supplemented with 10% fetal bovine serum, 50 IU/mL penicillin, and 50 μg/mL streptomycin in a 5% CO2 incubator. All cells were sub-cultured 3 times/week by trypsinisation. Viable cells were seeded and allowed to adhere for 12 h before a test drug was added in 96-well plates at an initial density of 1.0×10^5 cells/mL. Tumor cell lines were separately exposed to various concentrations of the tested compounds followed by incubation at a temperature of 37° C. during 96 hours inside a medium of fresh RMPI 1640. Cells were subsequently incubated at 37° C. using MTT at 0.5 mg/mL during 4 hours. After removal of supernatant, formazan crystals were dissolved in isopropanol and the optical density was measured at 570 nm. CX-4945 was used as a positive control.

[2] = system: H1299 (lung) cancer cell line; assay: In vitro cytotoxic activity MTT assay, H1299; format: cell-based; conditions: Homo sapiens, NCI-H1299; H1299 (lung) cells, exposed for 96 hours; read-out: IC50, concentration of compound eliciting a 50% inhibition of cell proliferation
Protocol: as §1

[3] = system: MDA-MB-231 (breast) cancer cell line; assay: In vitro cytotoxic activity MTT assay, MDA-MB-231; format: cell-based; conditions: Homo sapiens; MDA-MB-231 (breast) cells, exposed for 96 hours; read-out: IC50, concentration of compound eliciting a 50% inhibition of cell proliferation
Protocol: as §1

[4] = target: T1, recombinant human CK2 (holoenzyme) (Homo sapiens, UniProt P68400); assay: CK2 Kinase Assay (radiometric, [γ-33P] ATP); format: biochemical; conditions: final ATP concentration 15 μM, 10 min at 30° C., eight concentrations; read-out: protein kinase CK2 inhibition IC50
T1 construct: purchased Millipore
Protocol: CK2 Kinase Assay was conducted using the protocol as described in Pierre F. et al; J. Med. Chem. 2011, 54, 635-654. The tested compounds in aqueous solution were added at a volume of 10 μL to a reaction mixture comprising 10 μL of assay dilution buffer (ADB; 20 mM MOPS, pH 7.2, 25 mM P-glycerol phosphate, 5 mM EGTA, 1 mM sodium orthovanadate, and 1 mM dithiothreitol), 10 μL of substrate peptide (RRRDDDSDDD, dissolved in ADB at a concentration of 1 mM), 10 μL of recombinant human CK2 (RROP-holoenzyme, 25 ng dissolved in ADB; Millipore). Reactions were initiated by the addition of 10 μL of ATP solution (90% 75 mMMgCl2, 75 μM ATP (final ATP concentration:15 μM) dissolved in ADB; 10% [γ-33P] ATP (stock 1mCi/100 μL; 3000 Ci/mmol (Perkin-Elmer) and maintained for 10 min at 30° C. The reactions were quenched with 100 μL of 0.75% phosphoric acid and then transferred to and filtered through a phosphor cellulose filter plate (Millipore). After washing each well five times with 0.75% phosphoric acid, the plate was dried under vacuum for 5 min and, following the addition of 15 μL of scintillation fluid to each well, the residual radioactivity was measured using a Wallac luminescence counter. The IC50 values were derived from eight concentrations of test inhibitors.

[5] = system: A375 (melanoma) cancer cell line; assay: In vitro cytotoxic activity MTT assay, A375; format: cell-based; conditions: Homo sapiens, A-375; A375 (melanoma) cells, exposed for 96 hours; read-out: IC50, concentration of compound eliciting a 50% inhibition of cell proliferation
Protocol: as §1

[6] = system: HL60 (leukemia) cancer cell line; assay: In vitro cytotoxic activity MTT assay, HL60; format: cell-based; conditions: Homo sapiens, HL-60; HL60 (leukemia) cells, exposed for 96 hours; read-out: IC50, concentration of compound eliciting a 50% inhibition of cell proliferation
Protocol: as §1

[7] = system: PC3 (prostate) cancer cell line; assay: In vitro cytotoxic activity MTT assay, PC3; format: cell-based; conditions: Homo sapiens, PC3 (prostate) cells, exposed for 96 hours, read-out: IC50, concentration of compound eliciting a 50% inhibition of cell proliferation
Protocol: as §1

[8] = system: MCF7 (breast) cancer cell line; assay: In vitro cytotoxic activity MTT assay, MCF7; format: cell-based; conditions: Homo sapiens; MCF7 (breast) cells, exposed for 96 hours; read-out: IC50, concentration of compound eliciting a 50% inhibition of cell proliferation
Protocol: as §1

[9] = system: MIAPaCa-2 (pancreas) cancer cell line; assay: In vitro cytotoxic activity MTT assay, MIAPaCa-2; format: cell-based; conditions: Homo sapiens, MIA PaCa-2; MIAPaCa-2 (pancreas) cells, exposed for 96 hours; read-out: IC50, concentration of compound eliciting a 50% inhibition of cell proliferation
Protocol: as §1

T1 sequence (P68400 whole entry): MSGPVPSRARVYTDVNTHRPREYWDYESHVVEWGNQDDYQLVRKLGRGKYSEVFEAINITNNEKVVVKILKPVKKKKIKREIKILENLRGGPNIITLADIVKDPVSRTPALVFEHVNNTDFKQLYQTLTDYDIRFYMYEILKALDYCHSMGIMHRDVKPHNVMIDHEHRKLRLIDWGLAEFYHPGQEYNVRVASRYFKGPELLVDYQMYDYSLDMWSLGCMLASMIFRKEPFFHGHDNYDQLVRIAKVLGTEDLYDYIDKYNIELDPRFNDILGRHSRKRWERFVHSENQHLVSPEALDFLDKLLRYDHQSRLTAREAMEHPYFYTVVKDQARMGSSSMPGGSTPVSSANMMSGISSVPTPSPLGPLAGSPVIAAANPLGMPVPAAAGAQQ
T1 sequence (P67870 whole entry partner): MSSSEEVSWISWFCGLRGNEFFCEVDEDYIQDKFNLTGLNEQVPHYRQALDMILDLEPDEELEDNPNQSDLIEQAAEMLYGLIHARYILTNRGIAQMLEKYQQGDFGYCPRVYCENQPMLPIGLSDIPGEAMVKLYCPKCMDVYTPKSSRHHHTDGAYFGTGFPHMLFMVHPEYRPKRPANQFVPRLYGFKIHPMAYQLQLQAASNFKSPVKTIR

Work on Clc1cccc(Nc2c3ccncc3nc3c2nc2cnccn23)c1 [Compound 1, N-(3-chlorophenyl)pyrazino[2′,1′:2,3]imidazo[4,5-b][1,7]naphthyridin-11-amine] yielded an IC50 [1] of 1400 nM, an IC50 [2] of 2900 nM and an IC50 [3] of 5000 nM. It also gave an IC50 [4] of 92 nM, an IC50 [5] of 3200 nM and an IC50 [6] of 2800 nM. It also gave an IC50 [7] of 1900 nM, an IC50 [8] of 6300 nM and an IC50 [9] of 1100 nM.
